Holding throughout (type): physicochemical
A short description of data set [1]: TGA, loss of mass on heating. Particulars: up to a temperature of 175° C. As for the experimental part: No other phase transitions were observed. A loss of mass of ca. 0.1% was observed up to a temperature of 175° C.
The nature of data set [2]: Stability and moisture absorption: storage at 85% and 97% rel. humidity, evaluated by DSC, TGA and XRPD. Particulars: for mass change: after 12 months. As for the experimental part:
Stability and Moisture Absorption Samples of compound of the formula (I) in crystalline form of polymorph I were stored at 85% and 97% rel. humidity (25° C.). The samples were evaluated after 12 months by DSC, TGA and XRPD. After 12 months, a mass change of <0.1% is observed in both cases. […] According to DSC, TGA and XRPD, no difference exists in compound of the formula (I) in crystalline form of polymorph I.

Data set [3] can be described thus: Storage stability of polymorph I.
[4] abbreviates: 85% and 97% rel. humidity (25° C.), 12 months.

These results are taken from USRE49575E1, “Method for the preparation of (4S)-4-(4-cyano-2-methoxyphenyl)-5-ethoxy-2,8-dimethyl-l,4-dihydro-1-6-naphthyridine-3-carbox-amide and the purification thereof for use as an active pharmaceutical ingredient” (Bayer Pharma Aktiengesellschaft, priority 2014, dated 2023).

SMILES strings stand for the structures.

For the molecule `CCOc1ncc(C)c2c1[C@H](c1ccc(C#N)cc1OC)C(C(N)=O)=C(C)N2` [(4S)-4-(4-cyano-2-methoxyphenyl)-5-ethoxy-2,8-dimethyl-1,4-dihydro-1,6-naphthyridine-3-carboxamide], in data set [1], the loss of mass result is recorded as “ca. 0.1%”. In data set [2] (setting [4]), the absorption of water entry was “no significant absorption of water”; the “difference according to DSC, TGA and XRPD after storage” value is on record as “no difference”. In data set [2] (stored at 85% rel. humidity (25° C.)), this molecule returned a mass change of less than 0.1%. In data set [2] (stored at 97% rel. humidity (25° C.)), this molecule showed a mass change of less than 0.1%. Besides, the stability properties result in data set [3] (even at high atmospheric humidity) is given as “very good stability properties”. For the same molecule, the “storage time without any problem” value in data set [3] (solid, crystalline polymorph I) is greater than 2 years.
